This note sets out measurements from patent US10479784B2, “Substituted pyrazin-2-amines as inhibitors of ATR kinase” (Vertex Pharmaceuticals Incorporated, priority 2008, dated 2019).

Each structure is given as a SMILES string. pKi: −log10 of the molar value.

The assay addresses full-length ATR (Homo sapiens (Human), UniProt Q13535). Briefly: ATR Inhibition Assay (radioactive-phosphate incorporation). Format: biochemical. Particulars: read-out: ATR Ki. As to the method: Compounds were screened for their ability to inhibit ATR kinase using a radioactive-phosphate incorporation assay. Assays were carried out in a mixture of 50 mM Tris/HCl (pH 7.5), 10 mM MgCl2 and 1 mM DTT. Final substrate concentrations were […] [γ-33P]ATP (3mCi 33P ATP/mmol ATP, Perkin Elmer) and 800 μM target peptide ([…]).
Assays were carried out at 25° C. in the presence of 5 nM full-length ATR. An assay stock buffer solution was prepared containing all of the reagents listed above, with the exception of ATP and the test compound of interest. […] The plate was pre-incubated for 10 minutes at 25° C. and the reaction initiated by addition of 15 μL [γ-33P]ATP (final concentration 10 μM).
The reaction was stopped after […] by the addition of 30 μL 0.1M phosphoric acid containing 2 mM ATP. A multiscreen phosphocellulose filter 96-well plate (Millipore, Cat no. MAPHN0B50) was pretreated with 100 μL 0.2M phosphoric acid prior to the addition of 45 μL of the stopped assay mixture. […] After drying, 100 μL Optiphase ‘SuperMix’ liquid scintillation cocktail (Perkin Elmer) was added to the well prior to scintillation counting (1450 Microbeta Liquid Scintillation Counter, Wallac).
After removing mean background values for all of the data points, Ki(app) data were calculated from non-linear regression analysis of the initial rate data using the Prism software package (GraphPad Prism version 3.0cx for Macintosh, GraphPad Software, San Diego Calif., USA).

Chain of full-length ATR (Q13535 whole entry): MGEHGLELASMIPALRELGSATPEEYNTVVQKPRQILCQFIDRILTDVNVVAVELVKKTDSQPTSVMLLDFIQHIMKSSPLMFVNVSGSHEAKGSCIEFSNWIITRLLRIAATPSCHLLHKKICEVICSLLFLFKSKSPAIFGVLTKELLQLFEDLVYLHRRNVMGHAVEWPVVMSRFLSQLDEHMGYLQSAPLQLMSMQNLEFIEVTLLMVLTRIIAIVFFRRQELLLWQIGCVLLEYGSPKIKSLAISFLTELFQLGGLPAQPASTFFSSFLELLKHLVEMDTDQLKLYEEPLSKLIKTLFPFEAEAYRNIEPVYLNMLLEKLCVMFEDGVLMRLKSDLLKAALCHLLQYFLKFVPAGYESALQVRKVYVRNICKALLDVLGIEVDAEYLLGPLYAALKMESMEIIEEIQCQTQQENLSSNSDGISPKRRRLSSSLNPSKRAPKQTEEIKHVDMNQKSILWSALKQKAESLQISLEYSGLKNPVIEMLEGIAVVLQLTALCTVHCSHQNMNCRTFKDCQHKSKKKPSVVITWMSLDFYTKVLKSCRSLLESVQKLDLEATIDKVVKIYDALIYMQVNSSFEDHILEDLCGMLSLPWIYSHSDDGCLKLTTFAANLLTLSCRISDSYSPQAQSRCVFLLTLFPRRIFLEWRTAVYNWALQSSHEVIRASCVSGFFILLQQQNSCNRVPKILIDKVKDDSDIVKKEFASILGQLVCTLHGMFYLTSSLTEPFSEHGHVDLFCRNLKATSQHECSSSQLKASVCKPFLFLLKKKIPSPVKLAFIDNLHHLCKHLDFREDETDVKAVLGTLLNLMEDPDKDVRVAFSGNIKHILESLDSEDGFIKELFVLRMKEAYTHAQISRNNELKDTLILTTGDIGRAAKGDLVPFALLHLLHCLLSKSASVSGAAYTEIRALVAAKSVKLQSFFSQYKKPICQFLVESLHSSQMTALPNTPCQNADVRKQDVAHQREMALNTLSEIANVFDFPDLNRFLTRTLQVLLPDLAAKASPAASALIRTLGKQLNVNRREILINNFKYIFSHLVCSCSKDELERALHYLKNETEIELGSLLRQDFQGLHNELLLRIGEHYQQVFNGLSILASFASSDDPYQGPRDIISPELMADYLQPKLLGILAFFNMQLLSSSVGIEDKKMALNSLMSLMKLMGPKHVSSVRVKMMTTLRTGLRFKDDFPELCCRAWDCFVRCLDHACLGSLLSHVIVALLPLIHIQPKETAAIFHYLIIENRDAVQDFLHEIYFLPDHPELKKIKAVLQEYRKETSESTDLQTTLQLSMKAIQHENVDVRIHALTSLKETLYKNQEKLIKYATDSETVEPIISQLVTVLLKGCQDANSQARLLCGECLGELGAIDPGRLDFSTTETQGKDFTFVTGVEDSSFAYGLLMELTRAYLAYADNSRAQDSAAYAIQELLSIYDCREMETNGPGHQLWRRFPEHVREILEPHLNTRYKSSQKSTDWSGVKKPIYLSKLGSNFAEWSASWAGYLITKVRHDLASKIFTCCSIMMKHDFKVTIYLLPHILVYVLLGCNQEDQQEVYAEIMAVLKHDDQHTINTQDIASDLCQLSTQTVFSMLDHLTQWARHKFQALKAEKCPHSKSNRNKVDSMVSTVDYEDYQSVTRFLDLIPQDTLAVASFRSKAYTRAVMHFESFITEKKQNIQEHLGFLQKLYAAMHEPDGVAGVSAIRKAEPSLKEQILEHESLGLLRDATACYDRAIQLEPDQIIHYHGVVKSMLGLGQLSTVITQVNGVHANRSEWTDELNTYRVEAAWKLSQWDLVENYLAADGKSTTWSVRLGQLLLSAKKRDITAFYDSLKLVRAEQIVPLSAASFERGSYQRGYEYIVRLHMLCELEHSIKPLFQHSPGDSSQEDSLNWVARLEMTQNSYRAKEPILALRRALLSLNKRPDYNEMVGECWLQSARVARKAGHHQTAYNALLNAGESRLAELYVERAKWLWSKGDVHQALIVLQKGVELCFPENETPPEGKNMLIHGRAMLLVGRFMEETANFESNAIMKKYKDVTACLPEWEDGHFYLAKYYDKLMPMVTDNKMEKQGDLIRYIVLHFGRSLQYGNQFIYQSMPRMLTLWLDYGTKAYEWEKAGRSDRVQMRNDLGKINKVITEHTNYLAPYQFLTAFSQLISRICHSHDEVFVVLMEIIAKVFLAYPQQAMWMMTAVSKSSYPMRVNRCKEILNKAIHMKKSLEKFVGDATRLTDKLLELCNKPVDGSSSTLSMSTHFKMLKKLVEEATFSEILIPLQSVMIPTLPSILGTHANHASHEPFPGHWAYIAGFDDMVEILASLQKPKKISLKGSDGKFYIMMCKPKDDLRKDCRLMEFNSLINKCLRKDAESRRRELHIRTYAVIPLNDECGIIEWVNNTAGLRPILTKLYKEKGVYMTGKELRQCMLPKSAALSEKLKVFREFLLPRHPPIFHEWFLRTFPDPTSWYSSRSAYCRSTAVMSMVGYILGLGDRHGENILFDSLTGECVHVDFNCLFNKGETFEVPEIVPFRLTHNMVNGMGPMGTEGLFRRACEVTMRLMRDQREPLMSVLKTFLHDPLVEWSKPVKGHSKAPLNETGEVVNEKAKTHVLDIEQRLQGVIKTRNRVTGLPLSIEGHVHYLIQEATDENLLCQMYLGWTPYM

In the case of `Nc1ccccc1-c1cnc(N)c(-c2nnc(-c3ccccc3)o2)n1` [IA-58], the pKi is 7.00 to 8.00.

For the compound `Nc1ncc(-c2cccnc2)nc1-c1noc(-c2ccccc2)n1` [Compound I-145], the negative-log Ki (pKi) is 7.00 to 8.00.

With `CC(C)S(=O)(=O)c1ccc(-c2cnc(N)c(-c3nnc(-c4ccccc4O)o3)n2)cc1` [IA-235, 2-[5-[3-amino-6-(4-isopropylsulfonylphenyl)pyrazin-2-yl]-1,3,4-oxadiazol-2-yl]phenol], the pKi is at least 8.00.

Regarding `CNCc1ccc(-c2nnc(-c3nc(-c4ccc(S(=O)(=O)C(C)C)nc4)cnc3N)o2)cc1` [IA-303, 5-(6-isopropylsulfonyl-3-pyridyl)-3-[5-[4-(methylaminomethyl)phenyl]-1,3,4-oxadiazol-2-yl]pyrazin-2-amine], the negative-log Ki (pKi) is at least 8.00.

In the case of `Nc1ncc(-c2ccc(C(=O)N3CCCNCC3)cc2C(F)(F)F)nc1-c1nnc(-c2ccccc2)o1` [IA-39], the pKi is at least 8.00.

With `CNCc1ccc(-c2nnc(-c3nc(-c4ccc(S(=O)(=O)C5CCOCC5)cc4)cnc3N)o2)c(F)c1` [IA-344, 3-[5-[2-fluoro-4-(methylaminomethyl)phenyl]-1,3,4-oxadiazol-2-yl]-5-(4-tetrahydropyran-4-ylsulfonylphenyl)pyrazin-2-amine], the pKi was at least 8.00.

For `NCC[S+]([O-])c1ccccc1-c1cnc(N)c(-c2nnc(-c3ccccc3)o2)n1` (stereo not shown) [IA-261, 5-(2-(2-aminoethylsulfinyl)phenyl)-3-(5-phenyl-1,3,4-oxadiazol-2-yl)pyrazin-2-amine], the pKi was 7.00 to 8.00.

As for `COc1ncccc1NC(=O)c1nc(-c2ccc(S(C)(=O)=O)cc2)cnc1N` [VII-1], the pKi was 7.00 to 8.00.

Turning to `N#Cc1ccncc1-c1cnc(N)c(-c2nnc(-c3ccccc3)o2)n1` [IA-153, 3-(5-amino-6-(5-phenyl-1,3,4-oxadiazol-2-yl)pyrazin-2-yl)pyridine-4-carbonitrile], the pKi was 7.00 to 8.00.

In the case of `CNCc1ccc(-c2cc(-c3nc(-c4ccc(S(=O)(=O)C(C)C)cc4)cnc3N)on2)c(F)c1` [IIA-14, 3-[3-[2-fluoro-4-(methylaminomethyl)phenyl]isoxazol-5-yl]-5-(4-isopropylsulfonylphenyl)pyrazin-2-amine], the negative logarithm of the Ki (pKi) was at least 8.00.

Take `Nc1ncc(-c2cccnc2)nc1-c1nc2ccccc2[nH]1` [Compound I-121, 3-(1H-benzo[d]imidazol-2-yl)-5-(pyridin-3-yl)pyrazin-2-amine]: the pKi is 7.00 to 8.00.

As for `Cc1cc(NC(=O)c2nc(-c3ccc(S(C)(=O)=O)cc3)cnc2N)n(C)n1` [VII-3], the pKi is 5.30 to 7.00.

Take `COCCN(C)C(=O)c1ccc(-c2cnc(N)c(C(=O)Nc3ccccc3)n2)cc1` [Compound I-45, 3-amino-6-(4-((2-methoxyethyl)(methyl)carbamoyl)phenyl)-N-phenylpyrazine-2-carboxamide]: the pKi is 7.00 to 8.00.

As to `CC(C)[S+]([O-])c1ccc(-c2cnc(N)c(-c3nnc(-c4ccccc4)o3)n2)cc1` (stereo not shown) [IA-90, 5-(4-isopropylsulfinylphenyl)-3-(5-phenyl-1,3,4-oxadiazol-2-yl)pyrazin-2-amine], the negative-log Ki (pKi) was at least 8.00.

Consider `CC(C)S(=O)(=O)c1ccc(-c2cnc(N)c(-c3nnc(-c4ccc(CNC5CC5)cc4)o3)n2)cc1` [IA-158, 3-[5-[4-[(cyclopropylamino)methyl]phenyl]-1,3,4-oxadiazol-2-yl]-5-(4-isopropylsulfonylphenyl)pyrazin-2-amine], for which the pKi was at least 8.00.

With `Nc1ncc(-c2cccc3ncccc23)nc1-c1nnc(-c2ccccc2)o1` [IA-260, 3-(5-phenyl-1,3,4-oxadiazol-2-yl)-5-(5-quinolyl)pyrazin-2-amine], the pKi is 7.00 to 8.00.

On to `CN(C)C(=O)c1ccc(-c2cnc(N)c(-c3nnc(-c4ccc(C(O)CO)cc4)o3)n2)cc1` (stereo not shown) [IA-106, 4-[5-amino-6-[5-[4-(1,2-dihydroxyethyl)phenyl]-1,3,4-oxadiazol-2-yl]pyrazin-2-yl]-N,N-dimethyl-benzamide], for which the pKi was 7.00 to 8.00.

Regarding `CC(=O)Nc1ccccc1-c1cnc(N)c(-c2nnc(-c3ccccc3)o2)n1` [IA-267, N-(2-(5-amino-6-(5-phenyl-1,3,4-oxadiazol-2-yl)pyrazin-2-yl)phenyl)ethanamide], the pKi is 7.00 to 8.00.

Take `Nc1ncc(-c2cccnc2)nc1C(=O)Nc1ccncn1` [Compound I-89, 3-amino-6-(pyridin-3-yl)-N-(pyrimidin-4-yl)pyrazine-2-carboxamide]: the pKi was 5.30 to 7.00.

Turning to `COc1ccc(-c2cnc(N)c(C(=O)Nc3ccccc3)n2)cc1` [Compound I-1, 3-amino-6-(4-methoxyphenyl)-N-phenylpyrazine-2-carboxamide], the negative logarithm of the Ki (pKi) is 5.30 to 7.00.

Regarding `C[C@H](Nc1nnc(-c2nc(-c3ccc(C(=O)N(C)C)cc3)cnc2N)o1)c1ccc(Cl)cc1` [IA-129, 4-[5-amino-6-[5-[[(1 S)-1-(4-chlorophenyl)ethyl]amino]-1,3,4-oxadiazol-2-yl]pyrazin-2-yl]-N,N-dimethyl-benzamide], the pKi is 7.00 to 8.00.

As to `Nc1ncc(-c2cccnc2)nc1C(=O)Nc1cccc(S(N)(=O)=O)c1` [Compound I-101, 3-amino-6-(pyridin-3-yl)-N-(3-sulfamoylphenyl)pyrazine-2-carboxamide], the pKi was 7.00 to 8.00.

For the compound `CNCc1ccc(-c2nnc(-c3nc(-c4ccc(S(=O)(=O)C(C)C)cc4C(F)F)cnc3N)o2)cc1` [IA-322, 5-[2-(difluoromethyl)-4-isopropylsulfonyl-phenyl]-3-[5-[4-(methylaminomethyl)phenyl]-1,3,4-oxadiazol-2-yl]pyrazin-2-amine], the pKi was at least 8.00.

`Nc1ncc(-c2ccc(C(=O)N3CCCNCC3)cc2)nc1C(=O)Nc1n[nH]c2ccccc12` [Compound V-8]: the pKi was at least 8.00.

In the case of `CN1CCN(C(=O)c2ccc(-c3cnc(N)c(C(=O)Nc4ccccc4)n3)cc2)CC1` [Compound I-73, 3-amino-6-(4-(4-methylpiperazine-1-carbonyl)phenyl)-N-phenylpyrazine-2-carboxamide], the pKi was 7.00 to 8.00.

With `CN1CCN(c2ccc(-c3cnc(N)c(-c4nnc(-c5ccccc5)o4)n3)cn2)CC1` [IA-200, 5-(6-(4-methylpiperazin-1-yl)pyridin-3-yl)-3-(5-phenyl-1,3,4-oxadiazol-2-yl)pyrazin-2-amine], the pKi was 5.30 to 7.00.

As to `CN(C)C(=O)c1ccc(-c2cnc(N)c(-c3nnc(NC(=O)c4ccccc4)o3)n2)cc1` [IA-287, 4-[5-amino-6-(5-benzamido-1,3,4-oxadiazol-2-yl)pyrazin-2-yl]-N,N-dimethyl-benzamide], the negative logarithm of the Ki (pKi) is 5.30 to 7.00.

In the case of `CNCc1ccc(-c2nnc(-c3nc(-c4ccc(S(=O)(=O)C(C)CN(C)C)cc4)cnc3N)o2)cc1` (stereo not shown) [IA-324, 5-[4-[2-(dimethylamino)-1-methyl-ethyl]sulfonylphenyl]-3-[5-[4-(methylaminomethyl)phenyl]-1,3,4-oxadiazol-2-yl]pyrazin-2-amine], the pKi was at least 8.00.

As to `CC(C)S(=O)(=O)c1ccc(-c2cnc(N)c(-c3nnc(-c4cccc(C5CCCN5)c4)o3)n2)cc1` (stereo not shown) [IA-84, 5-(4-isopropylsulfonylphenyl)-3-[5-(3-pyrrolidin-2-ylphenyl)-1,3,4-oxadiazol-2-yl]pyrazin-2-amine], the negative logarithm of the Ki (pKi) was at least 8.00.

On to `Nc1ncc(-c2ccccc2)nc1-c1nnc(-c2ccccc2)o1` [IA-49], for which the negative logarithm of the Ki (pKi) was 7.00 to 8.00.

With `COc1ccncc1NC(=O)c1nc(-c2ccc(S(C)(=O)=O)cc2)cnc1N` [VII-9], the pKi was at least 8.00.

As a reminder, the pKi is the Ki on a negative log10 scale, so that one unit is a factor of ten.
